# US9125955B2, “99mTc imaging agents and methods of use” (GENERAL ELECTRIC COMPANY, priority 2012, dated 2015)
# Test: Ligand stability studies (stock solution at room temperature, LC-MS)
# Assay type: physicochemical
# Conditions: stock solution ~300 μg in 4 mL DMSO/H2O [1:1 v/v] (water for other ligands), bench top, LC-MS every 24 h, 3 days
# Procedure: Ligand stability studies: A stock solution (prepared by dissolving ˜300 μg of ligand in 4 mL of water; in the cases of Compound 2, 4 mL of DMSO/H2O[1:1 v/v] was used) was stored on bench top at room temperature without extra precautions.
structure (smiles),measurement,value
"C/C(=N\O)C(C)(C)NCCN(CCNC(C)(C)/C(C)=N/O)S(=O)(=O)c1ccc(C)cc1 [Compound 2, N,N-bis(2-((E)-3-(hydroxyimino)-2-methylbutan-2-ylamino)ethyl)-4-methylbenzenesulfonamide]",decomposition of ligand stock solution by LC-MS,no decomposition was observed
